Entries after “also recorded” stand apart in the source; their conditions may differ.
Columns and labels:
[1] = system: C57BL/6 mice; experiment: DSS (sodium dextran sulfate) model for intestinal inflammation: colon length, weight, DAI, appearance, colonic architecture; assay type: in vivo; details: for Conservation of colon length (shortening of the colon): 1% DSS for 8 days, diet supplemented with 2.3 mg/day/kg (HED 10 mg); for DAI (Disease Activity Index): 8 days with DSS and 6 days recovery; for DAI (Disease Activity Index) / General appearance of the mice / Weight change / Attenuation of damage in colonic mucosa (colonic architecture): HED 10 mg; for Rectal hemorrhage / General appearance of the mice: after 1% DSS for 8 days; for Weight change: after administration of DSS (day 21); for Attenuation of damage in colonic mucosa (colonic architecture): hematoxylin-eosin, during treatment with DSS
Protocol: (§1) A model for intestinal inflammation based on the administration of DSS (sodium dextran sulfate) to C57BL/6 mice was used. At the present time there is no consensus about which overall is the best model for experimental colitis. The DSS model has been widely used because it has clinical, morphological and analytical characteristics which up to a point are similar to those specific to patients with ulcerative colitis or Crohn's disease.
(§2) The in vivo inflammation test was carried out using duplicates separated by a number of months. In each test each group of animals (n=8) was fed a standard diet supplemented with 2.3 mg/day/kg (animal weight) of each of the compounds, depending upon the group. This dose assumes the ingestion of 0.05 mg/day (50 μg/day) per mouse (having a mean weight of 22 grams). This dose extrapolated to a human being is equivalent to 10 mg in an adult weighing 70 kg; using the formula HED (human equivalent dose)=animal dose in mg/kg×(animal weight kg/human weight in kg)^0.33.
In each test the mice were fed for 3 weeks during which 1% DSS was included in their drink. The DSS was maintained for 8 days (and the same food as from the start). Then the DSS was withdrawn and the animals were allowed to recover for another 6 days (again with the same food).
Groups included in the investigation: control (standard food), control-DSS, DSS-resveratrol (RES), DSS-piceid (PIC), DSS-resveratrol-diglucoside (DIGLUC), DSS-piceid-butyrate (BUT), DSS-piceid-octanoate (OCT).
• Monitoring of weight, food and drink ingestion. The mice in all groups were individually monitored, with weight, quantity of food ingested and water drunk each day being monitored throughout the experimental test. • Blood and water in feces. The water content of feces, as an indication of diarrhea, was evaluated using the difference in weight following evaporation in a stove. Blood was measured using reactive strips based on the guaiacol-peroxidase reaction (HealthCare Diagnosis Inc.). The samples were diluted 1:50 in saline solution and applied to the reactive strips. After 60 sec the color was compared with the template provided by the manufacturer. The reaction was measured using a scale from 0 (negative result) to 4 (most intense color change). • Length of colon. After sacrifice the colon was obtained from each mouse, extended and measured. Samples of the colonic mucosa for various tests mentioned below were obtained by scraping. • Myeloperoxidase activity in colonic mucosa. This was evaluated by spectrophotometry at 460 nm using O-dianisidine reagent and hydrogen peroxide. The change in absorbance at 460 nm was monitored over 10 minutes in a V-630 spectrophotometer (Jasco, Tokyo, Japan). MPO activity was expressed as mU of activity/mg of fresh tissue, comparing the increase in absorbance with a standard straight line obtained using leukocyte myeloperoxidase (Sigma). • Prostaglandins in colonic mucosa. Levels of PGE2 were measured in colonic mucosa homogenates using an immunoenzyme method using a Cayman Chem. kit (USA). • “Antibody array”. The “antibody array” kit from RayBiotech (“RayBio Mouse Inflammation Antibody Array 1”) was used to determine cytokines in colonic tissue samples. The “RayBio Mouse inflammation antibody arrays” are a fast and accurate system for determining the expression profile of multiple cytokines (in this case 40) in a very sensitive way. The sensitivity is 100 times greater than that of the ELISA method. The measurement was made in duplicate following the manufacturer's instructions. Membranes were blocked with blocking buffer and then incubated with 300 μg of protein for 2 hours. Finally the membranes were incubated with a cocktail of antibodies conjugated with biotin and then radish peroxidase marked with streptavidin. The signal was detected by chemoluminescence. Images were captured using a CCD camera fitted to a Biorad Chemidoc XRS imaging station. Signal intensities (densitometry) were analyzed using ScanAlyze software. […]

[2] = system: lactobacilli; experiment: Microbiota counts in feces: lactobacilli; assay type: in vivo, mice; details: pre-treatment, maintained after DSS; HED 10 mg
Protocol: as §1
(§3) The in vivo inflammation test was carried out using duplicates separated by a number of months. In each test each group of animals (n=8) was fed a standard diet supplemented with 2.3 mg/day/kg (animal weight) of each of the compounds, depending upon the group. […]
(§4) • Monitoring of weight, food and drink ingestion. The mice in all groups were individually monitored, with weight, quantity of food ingested and water drunk each day being monitored throughout the experimental test. • Blood and water in feces. The water content of feces, as an indication of diarrhea, was evaluated using the difference in weight following evaporation in a stove. Blood was measured using reactive strips based on the guaiacol-peroxidase reaction (HealthCare Diagnosis Inc.). […] The reaction was measured using a scale from 0 (negative result) to 4 (most intense color change). • Length of colon. After sacrifice the colon was obtained from each mouse, extended and measured. […]

[3] = system: clostridia; experiment: Microbiota counts in feces: clostridia; assay type: in vivo, mice; details: pre-treatment, maintained after DSS; HED 10 mg
Protocol: as §1, §3, §4

[4] = system: enterobacteria; experiment: Microbiota counts in feces: enterobacteria; assay type: in vivo, mice; details: after administration of DSS; HED 10 mg
Protocol: as §1
as §2, with “kg)^0.33. […]” for “kg)^0.33.”
• Monitoring of weight, food and drink ingestion. The mice in all groups were individually monitored, with weight, quantity of food ingested and water drunk each day being monitored throughout the experimental test. • Blood and water in feces. The water content of feces, as an indication of diarrhea, was evaluated using the difference in weight following evaporation in a stove. Blood was measured using reactive strips based on the guaiacol-peroxidase reaction (HealthCare Diagnosis Inc.). […] The reaction was measured using a scale from 0 (negative result) to 4 (most intense color change). • Length of colon. After sacrifice the colon was obtained from each mouse, extended and measured. […] This was evaluated by spectrophotometry at 460 nm using O-dianisidine reagent and hydrogen peroxide. The change in absorbance at 460 nm was monitored over 10 minutes in a V-630 spectrophotometer (Jasco, Tokyo, Japan). […] Levels of PGE2 were measured in colonic mucosa homogenates using an immunoenzyme method using a Cayman Chem. kit (USA). • “Antibody array”. […] The signal was detected by chemoluminescence. […]

[5] = system: interleukin-8 (IL-8); experiment: Production of interleukin-8 in HT-29 cells inoculated with Listeria monocytogenes Scott A; assay type: cell-based, human; details: HT-29, Listeria monocytogenes Scott A; for Modulation of IL-8 production at increased dose: 50 and 100 μM; for Production of IL-8: 6 hours
Protocol: The human colon carcinoma cell HT-29 model was used to evaluate the ability of the compounds derived from resveratrol to modulate the production of interleukin-8 as a response to pathogenic food bacteria. […] Cell viability was observed under the microscope and the supernatants from the wells were recovered. After centrifuging (10,000 rpm/10 min) and filtering the supernatants (0.22), IL-8 was determined using the ELISA method (Human Elisa IL-8 diaclone). The concentrations of the various derivatives tested were detected in the digestive tract of experimental animals and therefore the test fell within the range of physiological achievable concentrations.

Row | SMILES | Conservation of colon length (shortening of the colon) [1] | DAI (Disease Activity Index) [1] | Rectal hemorrhage [1] | General appearance of the mice [1] | Weight change [1] | Attenuation of damage in colonic mucosa (colonic architecture) [1] | Population of lactobacilli in feces [2] | Population of clostridia in feces [3] | Enterobacteria count in feces [4] | Modulation of IL-8 production at increased dose [5] | Production of IL-8 [5]
1 | CCCCCCCC(=O)OCC1OC(Oc2cc(O)cc(/C=C/c3ccc(O)cc3)c2)C(O)C(O)C1O [OCT, trans-resveratrol-3-O-(6′-O-octanoyl)-β-D-glucopyranoside] | least shortening of the colon | much less than in the remainder | no trace of rectal hemorrhage | OCT (D)≈BUT (C)>>RES≈DIGLUC≈PIC (B)>>control-DSS (A); also recorded: better appearance than the control-DSS | maintained the same weight as the control group | best preserved colonic architecture | increases the population | increases the population | clear reduction | more obvious | reduced production significantly
2 | CCCC(=O)OCC1OC(Oc2cc(O)cc(/C=C/c3ccc(O)cc3)c2)C(O)C(O)C1O [BUT, trans-resveratrol-3-O-(6′-O-butanoyl)-β-D-glucopyranoside] | least shortening of the colon | much less than in the remainder | no trace of rectal hemorrhage | OCT (D)≈BUT (C)>>RES≈DIGLUC≈PIC (B)>>control-DSS (A); also recorded: better appearance than the control-DSS | maintained the same weight as the control group | best preserved colonic architecture | increases the population | increases the population | clear reduction | more obvious | reduced production significantly
